Reference: patent US4025631A, “Dihydroquinoline derivatives of antioxidant activity” (priority 1971, dated 1977)
Structures can show the parent of a compound that is named as a salt.

Tests used:
[1] = solubility; assay type: physicochemical
[2] = antioxidant effect on fish-meal samples, Warburg apparatus; settings: 40 g. of fish meal + 0.04 g. of antioxidant; for Oxygen Uptake (decrease of O2 pressure, mmHg): 29° C., control 19.5; for Peroxide Number (calculated for 1 g. of fish meal): treated with oxygen, control 7.83
Experimental: The antioxidant effect of the new substances shown in foodstuffs and nutriments was investigated on fish-meal samples. […] In these experiments the oxygen uptake of fish-meal samples containing the various antioxidants was determined in a Warburg apparatus at 29° C., and the results were compared with those measured on samples containing no antioxidant. The peroxide number of samples treated with oxygen was also determined.

[3] = cited from earlier work
[4] = test system: encephalomalacia of poultries; settings: versus EMQ; cited from earlier work
[5] = test system: serum cholesterol level; experiment: serum cholesterol of cholesterol-treated rabbits; assay type: in vivo; settings: 1 g. of cholesterol per day, 0.06 g./kg. XAX daily for 70 or 105 days
Experimental: Due to this fact they can also be used for the prophylaxis and treatment of arteriosclerois. This effect of the new substances was investigated on rabbits treated with 1 g. of cholesterol per day. The animals were treated for 70 or 105 days with daily doses of 0.06 g./kg. of XAX. […] Using the hitherto-known antioxidants, this very favorable and important effect could not be reached at all.

[6] = test system: rats; experiment: continuous administration of XAX for three weeks / 90 days; assay type: in vivo
From the text: (§1) Since the novel compounds are completely nontoxic, they can be used with great advantage in animal husbandry and in the food industry, as well as in therapy. On the basis of the investigations carried out on the acute and chronic toxicity of these new active agents, it can be stated that they are completely free of the disadvantages of the hitherto-known antioxidants mentioned above, first of all as regards their use in therapy.

[7] = test system: malignant tumors; experiment: appearance of malignant tumors in animals irradiated with minimum doses for a long period; assay type: in vivo; settings: minimum irradiation doses for a long period, versus irradiated controls without XAX
From the text: Another important and unexpected property of the new substances is that they exert radiosensibilizing effect. […] On the basis of this property, the new compounds can also be used for the potentiating of the effect of irradiation therapy.

[8] = test system: rats; settings: rat, in vivo
From the text: as §1

[9] = test system: rats; settings: 14 days, 0.50 g./kg.; cited from earlier work
[10] = test system: animals; settings: longer period, dose of 0.56 g./kg.; cited from earlier work
[11] = LD50 (Korber method, modified by Cornfield); settings: in vivo
From the text: The LD50 values of BHT and EMQ are, on the other hand, the following -- measured according to the Korber method, modified by Cornfield: […]

## CC1=CC(C)(C)Nc2ccc(Cc3ccc4c(c3)C(C)=CC(C)(C)N4)cc21 [sulfuric acid salt of XAX]
[1]
  solubility in water and alcohol: soluble in water and alcohol

## Cc1cc(C(C)(C)C)c(O)c(C(C)(C)C)c1 [BHT]
[2]
  Oxygen Uptake (decrease of O2 pressure, mmHg): 16.5 mmHg
  Peroxide Number (calculated for 1 g. of fish meal): 3.42
[3]; aftereffect
  anophthalmia (teratogeneous effect): the appearance of anophthalmia was observed
[3]; in vivo
  cholesterol-synthesis in the liver and endogenous epoxidation: the cholesterol-synthesis in the liver as well as the endogenous epoxidation increases
  endogenous production of fatty acids and β-oxidation: stimulates the endogenous production of fatty acids and β-oxidation
  gestation period: increases the gestation period
[4]
  activity in encephalomalacia of poultries: far lower activity than EMQ

## CC1=CC(C)(C)Nc2ccc(Cc3ccc4c(c3)C(C)=CC(C)(C)N4)cc21 [XAX, bis-(2,2,4-trimethyl-1,2-dihydroquinolyl-6)-methane]
[5]
  cholesterol level of the blood: the cholesterol level of the blood decreased to a great extent
[6]; daily doses of 0.25 mg./kg., three weeks
  damaging of tissues or cells: no damaging of tissues or cells could be observed
[6]; rats, 90 days, same dose
  weight gain and blood picture: Neither the weight gain nor the blood picture of the animals was harmfully affected
[6]; rats, 90 days, same dose, versus untreated animals
  weight gain of some organs: no excessive weight gain of some organs of the animals could be observed
[6]; rats, same dose (0.25 mg./kg. daily), 90 days
  harmful effects: No harmful effects could be observed
[2]
  Oxygen Uptake (decrease of O2 pressure, mmHg): 11.5 mmHg
  Peroxide Number (calculated for 1 g. of fish meal): 1.54
[7]
  appearance of malignant tumors: could be suppressed
[8]
  toxic symptoms: no toxic symptoms

## CC1=CC(C)(C)Nc2ccc(Cc3ccc4c(c3)C(C)=CC(C)(C)N4)cc21 [Example 9, bis-(2,2,4-trimethyl-1,2-dihydroquinolyl-6)-methane]
[1]
  solubility in water and alcohol: soluble in water and alcohol

## CC1=CC(C)(C)Nc2ccc(Cc3ccc4c(c3)C(C)=CC(C)(C)N4)cc21 [Example 8, bis-(2,2,4-trimethyl-1,2,-dihydroquinolyl-6)-methane]
[1]
  solubility in water and alcohol: well soluble in water and alcohol

## CCOc1ccc2c(c1)C(C)=CC(C)(C)N2 [EMQ, 6-ethoxy-2,2,4-trimethyl-1,2-dihydroquinoline]
[9]
  appetite of the animals: the appetite of the animals was lowered
  size of the liver: an increase in size of the liver was observed
[2]
  Oxygen Uptake (decrease of O2 pressure, mmHg): 23.5 mmHg
  Peroxide Number (calculated for 1 g. of fish meal): 2.87
[10]
  appetite: may cause appetite lowering
  gain in weight: lowers the gain in weight
[11]
  LD50: 2230 ± 300 mg/kg
